Laboratory results: PubChem BioAssay (NCI)
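96-well plates; 48 h exposure; 5 concentrations. Endpoints by linear interpolation between flanking doses. Not reached: highest tested concentration assigned. TGI is the concentration that stops growth completely.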

Columns and labels:
Test in all cases: NCI anticancer screen, dose series, 48 h
786-0 renal = tested on: 786-0 renal
A549 NSCLC = tested on: A549 NSCLC
ACHN renal = tested on: ACHN renal
HCC-2998 colon = tested on: HCC-2998 colon
HCT-15 colon = tested on: HCT-15 colon
HL-60(TB) leukemia = tested on: HL-60(TB) leukemia
HS 578T breast = tested on: HS 578T breast
HT29 colon = tested on: HT29 colon
KM12 colon = tested on: KM12 colon
MALME-3M melanoma = tested on: MALME-3M melanoma
MDA-N = tested on: MDA-N
OVCAR-5 ovarian = tested on: OVCAR-5 ovarian
OVCAR-8 ovarian = tested on: OVCAR-8 ovarian
RXF 393 renal = tested on: RXF 393 renal
SF-295 CNS = tested on: SF-295 CNS
SK-MEL-5 melanoma = tested on: SK-MEL-5 melanoma
SK-OV-3 ovarian = tested on: SK-OV-3 ovarian
UACC-257 melanoma = tested on: UACC-257 melanoma
UACC-62 melanoma = tested on: UACC-62 melanoma
IGROV1 ovarian = tested on: IGROV1 ovarian

SMILES	TGI (786-0 renal) [µM]	TGI (A549 NSCLC) [µM]	TGI (ACHN renal) [µM]	TGI (HCC-2998 colon) [µM]	TGI (HCT-15 colon) [µM]	TGI (HL-60(TB) leukemia) [µM]	TGI (HS 578T breast) [µM]	TGI (HT29 colon) [µM]	TGI (KM12 colon) [µM]	TGI (MALME-3M melanoma) [µM]	TGI (MDA-N) [µM]	TGI (OVCAR-5 ovarian) [µM]	TGI (OVCAR-8 ovarian) [µM]	TGI (RXF 393 renal) [µM]	TGI (SF-295 CNS) [µM]	TGI (SK-MEL-5 melanoma) [µM]	TGI (SK-OV-3 ovarian) [µM]	TGI (UACC-257 melanoma) [µM]	TGI (UACC-62 melanoma) [µM]	TGI (IGROV1 ovarian) [µM]
S=C(N/N=C/c1ccccn1)N1CCCCC1	7.08	> 100	3.44	> 100	28.3	0.264	45.1	> 100	> 100	7.57	> 100	> 100	> 65.6	3.94	> 100	1.13	> 38.8	0.188	0.575	
O=C1CS(=O)(=O)C(c2cccc(Oc3ccccc3)c2)N1c1ccc(Cl)cc1 (centres undefined)	36.5	> 100	60.5	20.8	> 100	> 100	> 100	> 100	> 100	73.2	53	> 100	47.8	43	> 100	26.3	> 100	44.3	24.6	39
COc1ccc2c(c1)CN1C(=N2)CSC1c1cccc(Br)c1 (centres undefined)	42.8	> 100	> 100	57.8	> 100	22.3	> 100	72.3	> 100	> 100	> 100	> 100	> 100	55.9	> 100	83.7	> 100	> 100	53.1	> 100
COC(=O)[C@@H]1C=C[C@H](OC2OC(COC(C)=O)C(OC(C)=O)C(OC(C)=O)C2OC(C)=O)n2c(=O)n(-c3ccccc3)c(=O)n21 (some centres undefined)	2.83	30.8	3.17	21.9	3.85	4.39	45.8	3.64	19.6	4.07	7.41	12.6	8.03	4.12	15.5	7	29.4	5.07	8.89	12
Clc1ccc(CCN(CCc2ccc(Cl)c(Cl)c2)CCN2CCCC2)cc1Cl	3.14	3.15	3.2	3.19	3.28	3.25	4.47	3.41	3.04	3.5	3.32	3.23	3.06	3.33	3.3	3.2	3.49	3.37	3.06	2.93
Cc1ccc(C(=O)N/N=C(\N=Nc2cccc([N+](=O)[O-])c2)c2ccc(N(CCC#N)CCC#N)cc2C)cc1	> 100	> 100	> 100	> 100	> 100	> 43	> 88.3	> 100	61.6	18.4	> 78.4	> 100	> 91.6	60.7	> 92	28.6	> 85.2	52.7	> 100	> 100
